The source of these data is patent publication US8080517B2, “Cell-permeable peptide inhibitors of the JNK signal transduction pathway” (Xigen SA, priority 2005, dated 2011).

For assay [1] the following is noted: transient global ischemia; cited from earlier work.
The test system of assay [2] is primary embryonic cultures and differentiated PC12 cells. Conditions: after trophic withdrawal; also in mice treated with 1-methyl-4-phenyl tetrahydropyridine; cited from earlier work.
Assay [3] concerns chick embryonic dorsal root ganglion, sympathetic, ciliary and motor neurons. Conditions: cited from earlier work.
Assay [4] deals with WiDr cells. Nature of the assay: Irradiation (30 Gy) induced apoptosis. Format: cell-based, human. Conditions: 1 μM added 30 minutes before 30 Gy, analyzed 48 hours later. The procedure:
JNK is also activated by ionizing radiation. To determine whether inventive TAT-IB(s) peptides would provide protection against radiation-induced JNK damage, “WiDr” cells were irradiated (30 Gy) in presence or absence of D-TAT, inventive L-TAT-IB1(s) or inventive D-TAT-IB1(s) peptides (1 μM added 30 minutes before irradiation). Control cells (CTRL) were not irradiated. Cells were analyzed 48 hours later by means of PI and Hoechst 3342 staining, as described above. N=3, SEM are indicated.

For assay [5], the system named is βTC-3 cells. The assay can be described thus: IL-1β induced pancreatic β-cell death, peptide treatment, propidium iodide / Hoechst 33342 staining. Type of assay: cell-based. Conditions: one single addition 1 μM, IL-1β 10 ng/ml every two days, 15 days. The procedure: We investigated the effects of the inventive L-TAT-IB(s) peptides on the promotion of β-cell apoptosis elicited by IL-1. βTC-3 cell cultures were incubated for 30 minutes with 1 μM of inventive L-TAT-IB1(s) peptides followed by 10 ng/mL of IL-1. A second addition of peptide (1 μM) was performed 24 hours later. Apoptotic cells were counted after two days of incubation with IL-1 β using propidium iodide (red stained cell are dead cells) and Hoechst 33342 (blue stained cell are cells with intact plasma membrane) nuclear staining.
Long term inhibition of IL-1 induced cells death was examined by treating βTC-3 cells as described above, except that incubation of the cells with the peptides and IL-1 β was sustained for 12 days. Additional peptides (1 μM) were added each day and additional IL-1 β (10 ng/mL) was added every 2 days. […] Taken together, these experiments provide evidence that inventive TAT-IB(s) peptides are biologically active molecules able to prevent the effects of JNK signaling on cell fate.
Inhibition of IL-1 β induced pancreatic β-cell death by the inventive D-TAT-IB1(s) peptide was analyzed. βTC-3 cells were incubated as described above for 30 minutes with one single addition of the indicated peptides (1, μM), then IL-1 (10 ng/ml) was added.
Apoptotic cells were then counted after two days of incubation with IL-1 β by use of Propidium Iodide and Hoechst 33342 nuclear staining. A minimum of 1,000 cells were counted for each experiment. Standard Error of the Means (SEM) are indicated, n=5.
Long term inhibition of IL-1P induced cell-death by the D-TAT-IB1 peptide was also analyzed. βTC-3 cells were incubated as above for 30 minutes with one single addition of the indicated peptides (1 μM), then IL-1 β (10 ng/ml) was added, followed by addition of the cytokine every two days. Apoptotic cells were then counted after 15 days of incubation with IL-1 by use of propidium iodide and Hoechst 33342 nuclear staining. […] A minimum of 1.000 cells were counted for each experiment.

Assay [6] has as its system AP-1 DNA binding complex. The assay can be described thus: Gel retardation assay with AP-1 probe, nuclear extracts of TNF-α treated HeLa cells. Type of assay: cell-based. Particulars: peptide added 30 minutes before TNF-α 5 ng/ml.

Regarding `N#CC(c1ccnc(NCCc2cccnc2)n1)c1nc2ccccc2s1` (stereo not drawn) [AS601245], the “delayed loss of hippocampal CA1 neurons” value in assay [1] is reported as “significant protection against the delayed loss of hippocampal CA1 neurons”.
As to `CCSCc1ccc2c(c1)c1c3c(c4c5cc(CSCC)ccc5n5c4c1n2[C@H]1C[C@](O)(C(=O)OC)[C@]5(C)O1)CNC3=O` [CEP-1347], the neuronal survival result in assay [2] is listed as “promotes neuronal survival at dosages that inhibit activation of the c-Jun amino-terminal kinases (JNKs)”. Moreover, in assay [3], the “long term-survival of cultured neurons” value is given as “can promote long term-survival”.
For the molecule “NH2-GRKKRRQRRRPPRPKRPTTLNLFPQVPRSQD-COOH (H-GRKKRRQRRRPPRPKRPTTLNLFPQVPRSQD-OH) [L-TAT-IB1(s)]”, the “prevention of irradiation induced apoptosis” value in assay [4] was “able to prevent irradiation induced apoptosis”. In addition, the “long term inhibition of IL-1β induced cell-death” value in assay [5] was “but not inventive L-TAT-IB1 (s), was able to confer long term (15 day) protection”. The “formation of the AP-1 DNA binding complex” value in assay [6] is listed as “decrease the formation of the AP-1 DNA binding complex in the presence of TNF-α”.
